Test results as given in paper PMC8009520, “Exploration of TRPM8 Binding Sites by β-Carboline-Based Antagonists and Their In Vitro Characterization and In Vivo Analgesic Activities” (Journal of Medicinal Chemistry, 2020).
Where two headings read alike, the source gives them in different places.

Target: T1, rat isoform of TRPM8 channels (Rattus norvegicus, UniProt Q8R455)
T1 construct: expressed in transfected cells
Experiment: Ca2+ fluorimetric assay, menthol-activated channel
Format: cell-based
Method: TRPM8 blocker activity of all synthesized compounds was tested by Ca^2+ fluorimetric assays using HEK-293 cells stably expressing the rat isoform of TRPM8 channels, using menthol and AMTB as prototypical agonist and antagonist, respectively.
For measurement of the potency of the compounds, fluorimetric experiments were performed using HEK-293 cells (CRL-1573TM, American Type Culture Collection, LGC Promochem, Molsheim, France) that stably express rat TRPM8. The cells were seeded in 96-well plates (Corning Incorporated, Corning, NY) at a cell density of 40 000 cells 2 days before treatment. On the day of treatment, the medium was replaced with 100 μL of the dye loading solution Fluo-4 NW supplemented with probenecid 2.5 mM.
The tested molecules dissolved in DMSO were added at the desired concentrations, and the plates were incubated in darkness at 37 °C in a humidified atmosphere of 5% CO2 for 60 min. The fluorescence was measured using instrument settings appropriate for excitation at 485 nm and emission at 535 nm (POLARstar Omega BMG LABtech). A baseline recording of four cycles was recorded prior to stimulation with the agonist (100 μM menthol for TRPM8). The TRPM8 antagonist, 10 μM AMTB, was added to the medium containing the corresponding agonist to induce channel blockade. The changes in fluorescence intensity were recorded during 15 cycles more. The higher concentration of DMSO used in the experiment was added to the control wells. The cells’ fluorescence was measured before and after the addition of various concentrations of test compounds. The fluorescence values obtained are normalized to that prompted by the corresponding agonist (for channel activating compounds) or upon agonist and antagonist coexposure (for channel blocker compounds).

[1] = HEK-293 cells stably expressing rat TRPM8, menthol as agonist, mean ± SD of at least three measurements, read-out: IC50
[2] = supplementary xlsx, read-out: rTRPM8 IC50 (calcium microfluorimetric assays)

T1 sequence (Q8R455 whole entry, canonical isoform): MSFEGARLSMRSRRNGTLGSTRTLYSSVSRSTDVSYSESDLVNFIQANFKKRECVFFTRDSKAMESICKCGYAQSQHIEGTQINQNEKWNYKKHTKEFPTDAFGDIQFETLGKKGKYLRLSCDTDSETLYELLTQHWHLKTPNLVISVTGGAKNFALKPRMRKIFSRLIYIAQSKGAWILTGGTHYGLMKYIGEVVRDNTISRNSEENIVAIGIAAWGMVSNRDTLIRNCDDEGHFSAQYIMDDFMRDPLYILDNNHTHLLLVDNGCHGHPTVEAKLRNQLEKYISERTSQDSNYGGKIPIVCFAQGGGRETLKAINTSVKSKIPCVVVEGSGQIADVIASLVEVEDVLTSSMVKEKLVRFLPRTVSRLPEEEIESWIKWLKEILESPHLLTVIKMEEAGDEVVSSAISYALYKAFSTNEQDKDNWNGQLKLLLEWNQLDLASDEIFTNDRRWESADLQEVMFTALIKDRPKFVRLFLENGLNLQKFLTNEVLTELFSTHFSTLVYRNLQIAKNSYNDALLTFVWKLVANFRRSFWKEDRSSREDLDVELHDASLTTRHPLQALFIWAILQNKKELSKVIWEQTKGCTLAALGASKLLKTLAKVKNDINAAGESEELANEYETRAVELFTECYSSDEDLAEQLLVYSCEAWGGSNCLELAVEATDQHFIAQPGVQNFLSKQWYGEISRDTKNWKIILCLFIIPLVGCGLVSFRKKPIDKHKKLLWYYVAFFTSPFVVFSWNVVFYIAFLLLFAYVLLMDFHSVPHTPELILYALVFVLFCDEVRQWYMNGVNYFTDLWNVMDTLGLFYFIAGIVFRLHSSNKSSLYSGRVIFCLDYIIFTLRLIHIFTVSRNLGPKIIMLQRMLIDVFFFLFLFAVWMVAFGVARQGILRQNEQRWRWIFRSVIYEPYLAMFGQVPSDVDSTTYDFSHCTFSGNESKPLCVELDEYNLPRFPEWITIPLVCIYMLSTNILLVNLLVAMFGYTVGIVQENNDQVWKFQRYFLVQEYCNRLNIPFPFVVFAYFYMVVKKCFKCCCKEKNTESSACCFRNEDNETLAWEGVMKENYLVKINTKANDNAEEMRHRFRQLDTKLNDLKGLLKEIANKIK

Compound	IC50 [1]	IC50 [2]	rTRPM8 IC50 (calcium microfluorimetric assays) (supplementary xlsx)
COC(=O)[C@@H]1Cc2c([nH]c3ccccc23)[C@H](c2ccccc2)N1Cc1ccccc1 [6b, (1S,3S)-Methyl 2-Benzyl-1-phenyl-2,3,4,9-tetrahydro-1H-pyrido[3,4-b]indole-3-carboxylate]	1.6 ± 0.9 µM	1.4 ± 1.3 µM	–
CC(C)C[C@H]1N[C@H](C(=O)NCc2ccc(F)cc2)Cc2c1[nH]c1ccccc21 [10a, (1R,3S)-N-(4-Fluorobenzyl)-1-isobutyl-2,3,4,9-tetrahydro-1H-pyrido[3,4-b]indole-3-carboxamide]	4.6 ± 1.3 µM	–	–
CC(C)C[C@@H]1N[C@H](C(=O)NCc2ccc(F)cc2)Cc2c1[nH]c1ccccc21 [10b, (1S,3S)-N-(4-Fluorobenzyl)-1-isobutyl-2,3,4,9-tetrahydro-1H-pyrido[3,4-b]indole-3-carboxamide]	6.2 ± 1.2 µM	–	–
COC(=O)CC[C@@H]1N[C@H](C(=O)NCc2ccc(F)cc2)Cc2c1[nH]c1ccccc21 [11b, Methyl 3-((1S,3S)-3-((4-Fluorobenzyl)carbamoyl)-2,3,4,9-tetrahydro-1H-pyrido[3,4-b]indol-1-yl)propanoate]	3 ± 1.2 µM	–	–
O=C(O)CC[C@@H]1N[C@H](C(=O)NCc2ccc(F)cc2)Cc2c1[nH]c1ccccc21 [12b, 3-((1S,3S)-3-((4-Fluorobenzyl)carbamoyl)-2,3,4,9-tetrahydro-1H-pyrido[3,4-b]indol-1-yl)propanoic Acid]	22 ± 1.4 µM	–	–
CC(C)C[C@@H]1c2[nH]c3ccccc3c2C[C@H]2C(=O)N[C@@H](Cc3ccccc3)C(=O)N12 [25a, (3S,6R,12aS)-3-Benzyl-6-isobutyl-2,3,12,12a-tetrahydropyrazino[1′,2′:1,6]pyrido[3,4-b]indole-1,4(6H,7H)-dione]	4.1 ± 1.1 µM	–	–
CC(C)C[C@H]1c2[nH]c3ccccc3c2C[C@H]2C(=O)N[C@@H](Cc3ccccc3)C(=O)N21 [25b, (3S,6S,12aS)-3-Benzyl-6-isobutyl-2,3,12,12a-tetrahydropyrazino[1′,2′:1,6]pyrido[3,4-b]indole-1,4(6H,7H)-dione]	1.3 ± 0.6 µM	0.9 ± 1.2 µM	–
O=C1NCC(=O)N2[C@H](c3ccc(Cl)cc3)c3[nH]c4ccccc4c3C[C@@H]12 [27a, (6R,12aS)-6-(4-Chlorophenyl)-2,3,12,12a-tetrahydropyrazino[1′,2′:1,6]pyrido[3,4-b]indole-1,4(6H,7H)-dione]	1.5 ± 1.1 µM	–	–
O=C1NCC(=O)N2[C@@H](c3ccc(Cl)cc3)c3[nH]c4ccccc4c3C[C@@H]12 [27b, (6S,12aS)-6-(4-Chlorophenyl)-2,3,12,12a-tetrahydropyrazino[1′,2′:1,6]pyrido[3,4-b]indole-1,4(6H,7H)-dione]	1.7 ± 0.8 µM	1.2 ± 1.7 µM	–
COc1ccc(CN2C(=O)[C@@H]3Cc4c([nH]c5ccccc45)[C@@H](CC(C)C)N3C2=O)cc1 [29a, (5R,11aS)-5-Isobutyl-2-(4-methoxybenzyl)-5,6,11,11a-tetrahydro-1H-imidazo[1′,5′:1,6]pyrido[3,4-b]indole-1,3(2H)-dione]	2.8 ± 1.2 µM	–	22.9 ± 1.4 µM
COc1ccc(CN2C(=O)[C@H]3Cc4c([nH]c5ccccc45)[C@H](CC(C)C)N3C2=O)cc1 [29a′, (5S,11aR)-5-Isobutyl-2-(4-methoxybenzyl)-5,6,11,11a-tetrahydro-1H-imidazo[1′,5′:1,6]pyrido[3,4-b]indole-1,3(2H)-dione]	22.9 ± 1.4 µM	–	–
Cc1ccc(CN2C(=O)[C@@H]3Cc4c([nH]c5ccccc45)[C@@H](c4ccc(Cl)cc4)N3C2=O)cc1 [30a, (5R,11aS)-5-(4-Chlorophenyl)-2-(4-methylbenzyl)-5,6,11,11a-tetrahydro-1H-imidazo[1′,5′:1,6]pyrido[3,4-b]indole-1,3(2H)-dione]	0.8 ± 0.4 µM	–	2.3 ± 0.8 µM
Cc1ccc(CN2C(=O)[C@H]3Cc4c([nH]c5ccccc45)[C@H](c4ccc(Cl)cc4)N3C2=O)cc1 [30a′, (5S,11aR)-5-(4-Chlorophenyl)-2-(4-methylbenzyl)-5,6,11,11a-tetrahydro-1H-imidazo[1′,5′:1,6]pyrido[3,4-b]indole-1,3(2H)-dione]	2.3 ± 0.8 µM	–	–
O=C1[C@H]2Cc3c([nH]c4ccccc34)[C@H](c3ccc(Cl)cc3)N2C(=O)N1Cc1ccc(F)cc1 [31a′, (5S,11aR)-5-(4-Chlorophenyl)-2-(4-fluorobenzyl)-5,6,11,11a-tetrahydro-1H-imidazo[1′,5′:1,6]pyrido[3,4-b]indole-1,3(2H)-dione]	> 30 µM	–	–
O=C1[C@@H]2Cc3c([nH]c4ccccc34)[C@@H](c3ccc(F)cc3)N2C(=O)N1Cc1ccccc1 [33a, (5R,11aS)-2-Benzyl-5-(4-fluorophenyl)-5,6,11,11a-tetrahydro-1H-imidazo[1′,5′:1,6]pyrido[3,4-b]indole-1,3(2H)-dione]	6.4 ± 1.2 µM	–	17.5 ± 1.4 µM
O=C1[C@H]2Cc3c([nH]c4ccccc34)[C@H](c3ccc(F)cc3)N2C(=O)N1Cc1ccccc1 [33a′, (5S,11aR)-2-Benzyl-5-(4-fluorophenyl)-5,6,11,11a-tetrahydro-1H-imidazo[1′,5′:1,6]pyrido[3,4-b]indole-1,3(2H)-dione]	17.5 ± 1.4 µM	–	–
NCCCN1C(=O)[C@@H]2Cc3c([nH]c4ccccc34)[C@@H](c3ccc(F)cc3)N2C1=O [35a, (5R,11aS)-2-(3-Aminopropyl)-5-(4-fluorophenyl)-5,6,11,11a-tetrahydro-1H-imidazo[1′,5′:1,6]pyrido[3,4-b]indole-1,3(2H)-dione]	5.1 ± 1.2 µM	–	27.2 ± 1.4 µM
NCCCN1C(=O)[C@H]2Cc3c([nH]c4ccccc34)[C@H](c3ccc(F)cc3)N2C1=O [35a′, (5S,11aR)-2-(3-Aminopropyl)-5-(4-fluorophenyl)-5,6,11,11a-tetrahydro-1H-imidazo[1′,5′:1,6]pyrido[3,4-b]indole-1,3(2H)-dione]	27.2 ± 1.4 µM	–	–
O=C1[C@@H]2Cc3c([nH]c4ccccc34)[C@@H](c3ccc(F)cc3)N2C(=O)N1c1cccc(C(F)(F)F)c1 [36a, (5R,11aS)-5-(4-Fluorophenyl)-2-(3-(trifluoromethyl)phenyl)-5,6,11,11a-tetrahydro-1H-imidazo[1′,5′:1,6]pyrido[3,4-b]indole-1,3(2H)-dione]	2.8 ± 1.5 µM	–	7.8 ± 2.4 µM
O=C1[C@H]2Cc3c([nH]c4ccccc34)[C@H](c3ccc(F)cc3)N2C(=O)N1c1cccc(C(F)(F)F)c1 [36a′, (5S,11aR)-5-(4-Fluorophenyl)-2-(3-(trifluoromethyl)phenyl)-5,6,11,11a-tetrahydro-1H-imidazo[1′,5′:1,6]pyrido[3,4-b]indole-1,3(2H)-dione]	7.8 ± 2.4 µM	–	–
O=C1[C@@H]2Cc3c([nH]c4ccccc34)[C@@H](c3ccc(F)cc3)N2C(=O)N1c1ccccc1F [37a, (5R,11aS)-2-(2-Fluorophenyl)-5-(4-fluorophenyl)-5,6,11,11a-tetrahydro-1H-imidazo[1′,5′:1,6]pyrido[3,4-b]indole-1,3(2H)-dione]	4.4 ± 1.3 µM	–	5.1 ± 2.1 µM
O=C1[C@H]2Cc3c([nH]c4ccccc34)[C@H](c3ccc(F)cc3)N2C(=O)N1c1ccccc1F [37a′, (5S,11aR)-2-(2-Fluorophenyl)-5-(4-fluorophenyl)-5,6,11,11a-tetrahydro-1H-imidazo[1′,5′:1,6]pyrido[3,4-b]indole-1,3(2H)-dione]	5.1 ± 2.1 µM	–	–
O=C1[C@@H]2Cc3c([nH]c4ccccc34)[C@@H](c3ccc(F)cc3)N2C(=O)N1c1ccc(F)cc1 [38a, (5R,11aS)-2,5-Bis(4-fluorophenyl)-5,6,11,11a-tetrahydro-1H-imidazo[1′,5′:1,6]pyrido[3,4-b]indole-1,3(2H)-dione]	6.7 ± 1.2 µM	–	7.2 ± 0.9 µM
